Test results as given in patent US12473295B2, “Substituted straight chain spiro derivatives” (Janssen Pharmaceutica NV, priority 2019, dated 2025).
Structures can show the parent of a compound that is named as a salt. Where two headings read alike, the source gives them in different places.

What was measured:
OCI-AML3 cells = assay: Proliferation assay (spheroid growth, 8 days), OCI-AML3; type: cell-based, human; settings: OCI-AML3, 8 days
Summary of the method: (§1)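 IC50 values derive from day-8 spheroid confluence, normalized between DMSO-treated wells and the highest dose of a reference compound, fitted with a variable slope. Cells grew 8 days at 37° C under a compound concentration series in 0.3% DMSO.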

hERG potassium channel = hERG potassium channel (Homo sapiens (Human), UniProt Q12809); assay: Effect on membrane potassium current IKr in hERG transfected CHO cells, Protocol 1 (QPatch); type: cell-based
Method: 8) Effect on the Membrane Potassium Current IKr in hERG Transfected Cell Lines
• CHO Chinese hamster ovary cell line • DMSO Dimethylsulfoxide • hERG human ether-á-go-go-related gene • IKr rapidly activating delayed-rectifier K^+ current Methods
Experiments were performed using CHO cells stably expressing the hERG potassium channel. Cells were grown at 37° C. and 5% CO2 in culture flasks in Ham's F12 Medium supplemented with 10% heat-inactivated fetal calf serum, hygromycin B (100 μg/ml) and geneticin (100 μg/ml). For use in the automated patch-clamp system QPatch (Sophion) cells were harvested to obtain cell suspension of single cells.
Solutions: The bath solution contained (in mM) 145 NaCl, 4 KCl, 10 glucose, 10 HEPES ((4-(2-hydroxyethyl)-1-piperazineethanesulfonic acid), 2 CaCl2 and 1 MgCl2 (pH 7.4 with NaOH). The pipette solution contained (in mM) 120 KCl, 10 EGTA (Ethylene glycol-bis(2-aminoethylether)-N,N,N′,N′-tetraacetic acid), 10 HEPES, 5.374 CaCl2 and 1.75 MgCl2 (pH 7.2 with KOH).
Patch-clamp experiments were performed in the voltage-clamp mode and whole-cell currents were recorded with an automated patch-clamp assay utilizing the QPatch system (Sophion). Current signals were amplified and digitized, stored and analyzed by using the QPatch assay software.
The holding potential was −80 mV. The hERG current (K^+-selective outward current) was determined as the maximal tail current at −40 mV after a 2 second depolarization to +60 mV. Pulse cycling rate was 15 s. A short pulse (90 ms) to −40 mV served as a baseline step to calculate the tail current amplitude. After establishing whole-cell configuration and a stability period, the solvent control (0.3% DMSO) was applied for 5 minutes followed by the test substance by four increasing concentrations of 3×10^−7 M, 3×10^−6 M, 10^−5 M and 3×10^−5 M. Each concentration of the test substance was applied twice. The effect of each concentration was determined after 5 min as an average current of 3 sequential voltage pulses. To determine the extent of block the residual current was compared with vehicle pre-treatment.
Concentration/response relations were calculated by non-linear least-squares fits to the individual data points. The half-maximal inhibiting concentration (IC50) was calculated by the fitting routine.

MEIS1 mRNA = MEIS1 mRNA expression assay (Quantigene Singleplex) in MOLM14 cells; type: cell-based, human; settings: 48 hours incubation;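 note: MEIS1 transcript levels read by probe hybridization and normalized to RPL28 mRNA, with IC50 fitted to fold changes across a rising compound concentration series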
KO-52 cells = assay: Proliferation assay (spheroid growth, 8 days), KO-52 control cell line; type: cell-based, human; settings: read-out: spheroid assay_OneTime KO-52 IC50
Summary of the method: as §1

[1] = Metabolic stability in mouse liver microsomes; type: in vitro ADME; settings: mouse liver microsomes 0.5 mg/mL, 1 μM test compound, pH 7.4; for microsomal CLint at 1 μM: read-out: Mouse LM Clint
Method: (§2) 4) Metabolic Stability in Human/Mouse Liver Microsomes
(§3) The objective of this study is to measure in vitro metabolic stability of test compound(s) in human and mouse liver microsomes and provide quantitative information on the rate of metabolic turnover (i.e. determination of the apparent intrinsic clearance of test).
(§4) Test items were prepared at a stock concentration of 10 mM in DMSO. For determination of metabolic turnover, a final working solution was prepared by adding 2 μL of 10 mM DMSO stock solution for test compound or positive control compounds to 198 μL of acetonitrile (100 μM final concentration).
(§5) Incubations were performed as follows: First, liver microsomes were thawed on ice and a master solution containing liver microsomes in 100 mM PBS (phosphate-buffered saline) at pH 7.4 is prepared. Next, the liver microsomes solution was added to the incubation plates and 10 mM NADPH (Nicotinamide-adenine dinucleotide phosphate) was added (MW: 833.4 g/mol; Roche Diagnostics GmbH, Germany. Dissolved in phosphate buffer (100 mmol/L, pH 7.4)). The mixture was mixed for 10 seconds and pre-warmed in the incubation plate at 37° C. for 10 minutes. The metabolic reaction was initiated with the addition of 5 μL of the 100 μM working solution for test compound or positive control compounds to incubation plate (final test item concentration=1 μM). The reaction final mixture should contain 1 mM NADPH, 0.5 mg/mL microsomes protein and 1 μM test compound or positive control compound in 100 mM PBS at pH 7.4. The percentage of organic solvent in incubation mixture is 1% with DMSO ≤0.02%.
(§6) The reaction was quenched by transferring 50 μL of the incubated mixture at selected time points into the quenching plate containing 200 μL of cold methanol. After sampling of all the timepoints the quenching plate was centrifuged at 4000 rpm for 40 minutes to precipitate protein. A total of 90 μL of the supernatant was transferred to an analysis plate and ultra-pure H2O water is added into each well for LC/MS/MS analysis. All incubations and analysis were performed in duplicate.
(§7) All calculations were carried out using Microsoft Excel. The slope value, k, was determined by linear regression of the natural logarithm of the remaining percentage of the parent drug vs. incubation time curve.
(§8) The in vitro half-life (in vitro tin) was determined from the slope value: in vitro t1/2=−(0.693/k)
(§9) Conversion of the in vitro tin (in min) into the in vitro intrinsic clearance (in vitro CLint, in μL/min/mg proteins) was done using the following equation: […]

MOLM14 cells = assay: Proliferation assay (spheroid growth, 8 days), MOLM14; type: cell-based, human; settings: MOLM14, 8 days, read-out: spheroid assay_OneTime MOLM14 IC50;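 note: spheroid size read as confluence by live-cell imaging, compounds added at a range of concentrations with 0.3% DMSO, DMSO-treated wells = 0%, highest reference dose = low control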
[2] = Metabolic stability in human liver microsomes; type: in vitro ADME; settings: human liver microsomes 0.5 mg/mL, 1 μM test compound, pH 7.4; for microsomal CLint at 1 μM: read-out: Human LM Clint
Method: as §2, §3, §4, §5, §6, §7, §8, §9

[3] = Mouse PK (in vivo T1/2 and oral bioavailability); settings: fasted male CD-1 mice, formulating agent HP-β-CD; for half-life: single IV 0.5 or 1.0 mg/kg; for bioavailability: single PO 5 mg/kg
Method: 3) Mouse PK (In Vivo T1/2 and Oral Bioavailability)
In vivo pharmacokinetics (PK) were assessed in fasted male CD-1 mice (age 6-8 weeks) following a single intravenous (IV, 0.5 or 1.0 mg/kg administered at 2.5 ml/kg) or oral (PO, 5 mg/kg administered at 10 ml solution/kg) dose of test article formulated in a 20% (w:vol) HP-β-CD solution or in Pyrogen free water.
Plasma and/or whole blood samples were collected from the dorsal metatarsal vein at desired timepoints via serial capillary microsampling (approx. 0.03 mL) using EDTA as an anticoagulant. Concentrations of compound in the plasma and blood samples were analyzed using a qualified LC-MS/MS method. In silico analysis of main pharmacokinetic parameters was performed using WinNonlin (Phoenix™, version 6.1) or similar software. (Results see Table 4)

[4] = target: menin/MLL (terbium chelate-labeled menin, FITC-MBM1 peptide) (Homo sapiens (Human), UniProt O00255); assay: Menin/MLL homogenous time-resolved fluorescence (HTRF) assay; type: binding;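 note: IC50 from percent inhibition of HTRF signal, normalized between wells without competitor and wells with a saturating competitor that displaces FITC-MBM1 from His-tagged menin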
[5] = HTRF-30 min incubation IC50, 30 min incubation

Chain of hERG potassium channel (Q12809 whole entry): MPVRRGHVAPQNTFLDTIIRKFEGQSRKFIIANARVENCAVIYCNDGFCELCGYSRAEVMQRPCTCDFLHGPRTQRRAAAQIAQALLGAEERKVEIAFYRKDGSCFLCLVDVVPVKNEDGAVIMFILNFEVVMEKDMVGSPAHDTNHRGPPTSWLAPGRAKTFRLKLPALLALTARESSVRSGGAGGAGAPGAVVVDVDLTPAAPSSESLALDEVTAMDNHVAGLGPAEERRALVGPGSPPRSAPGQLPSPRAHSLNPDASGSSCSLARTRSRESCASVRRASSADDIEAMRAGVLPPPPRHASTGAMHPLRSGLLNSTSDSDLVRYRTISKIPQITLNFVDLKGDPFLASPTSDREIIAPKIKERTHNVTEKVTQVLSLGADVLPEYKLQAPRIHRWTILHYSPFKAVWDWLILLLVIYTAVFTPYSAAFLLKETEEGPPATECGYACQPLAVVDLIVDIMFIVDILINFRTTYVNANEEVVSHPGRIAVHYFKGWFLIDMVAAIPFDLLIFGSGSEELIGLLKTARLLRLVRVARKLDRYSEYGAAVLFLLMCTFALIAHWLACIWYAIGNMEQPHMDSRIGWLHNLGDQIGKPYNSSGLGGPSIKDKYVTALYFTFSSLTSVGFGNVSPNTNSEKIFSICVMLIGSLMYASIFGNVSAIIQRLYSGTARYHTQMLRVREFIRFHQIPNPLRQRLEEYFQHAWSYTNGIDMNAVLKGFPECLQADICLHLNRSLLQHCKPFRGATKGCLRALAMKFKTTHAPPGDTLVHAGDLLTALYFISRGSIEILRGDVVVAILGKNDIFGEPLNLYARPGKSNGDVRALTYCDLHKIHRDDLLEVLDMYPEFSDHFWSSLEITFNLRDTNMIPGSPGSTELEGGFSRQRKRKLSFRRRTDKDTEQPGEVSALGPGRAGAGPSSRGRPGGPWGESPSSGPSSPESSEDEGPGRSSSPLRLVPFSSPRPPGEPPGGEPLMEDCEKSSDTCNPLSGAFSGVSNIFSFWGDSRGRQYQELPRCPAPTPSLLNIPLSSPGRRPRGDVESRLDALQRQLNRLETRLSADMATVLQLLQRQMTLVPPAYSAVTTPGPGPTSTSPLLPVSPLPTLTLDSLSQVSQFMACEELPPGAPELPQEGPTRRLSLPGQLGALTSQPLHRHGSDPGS
Chain of menin/MLL (terbium chelate-labeled menin, FITC-MBM1 peptide) (O00255 other isoform, or with tags, fused parts or gaps): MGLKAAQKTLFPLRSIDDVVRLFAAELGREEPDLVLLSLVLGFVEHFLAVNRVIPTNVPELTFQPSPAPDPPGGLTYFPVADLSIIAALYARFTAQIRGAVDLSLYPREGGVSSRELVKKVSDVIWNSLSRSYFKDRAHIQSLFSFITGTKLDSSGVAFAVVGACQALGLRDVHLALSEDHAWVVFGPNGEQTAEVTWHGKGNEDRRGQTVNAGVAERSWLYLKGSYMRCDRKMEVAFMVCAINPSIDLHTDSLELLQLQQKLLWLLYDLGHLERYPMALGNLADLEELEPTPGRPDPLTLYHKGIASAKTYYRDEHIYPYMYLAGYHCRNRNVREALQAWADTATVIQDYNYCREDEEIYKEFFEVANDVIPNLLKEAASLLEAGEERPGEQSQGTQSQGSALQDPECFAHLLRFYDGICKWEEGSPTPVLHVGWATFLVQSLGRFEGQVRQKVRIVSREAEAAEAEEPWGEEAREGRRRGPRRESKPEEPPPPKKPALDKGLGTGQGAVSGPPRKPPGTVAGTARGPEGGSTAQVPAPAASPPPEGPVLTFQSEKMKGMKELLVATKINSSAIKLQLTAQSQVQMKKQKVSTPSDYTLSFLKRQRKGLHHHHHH

Row | SMILES | IC50 (OCI-AML3 cells; Homo sapiens, OCI-AML-3, […]) [nM] | IC50 (hERG potassium channel) [nM] | IC50 (MEIS1 mRNA; Homo sapiens, MOLM-14, 48 h) [nM] | IC50 (KO-52 cells; Homo sapiens, […]) [nM] | microsomal CLint at 1 μM [1] [µL/min/mg] | IC50 (MOLM14 cells; Homo sapiens, MOLM-14, […]) [nM] | microsomal CLint at 1 μM [2] [µL/min/mg] | half-life [3] [h] | bioavailability [3] [%] | IC50 [4, 5] [nM] | other results
1 | CCN(C(=O)c1cc(F)ccc1Oc1nnccc1N1CCC2(C1)CN([C@H](CCCN(C)CCOC)C(C)C)C2)C(C)C (single isomer, unassigned) [Compound 83] | 420 | 6000 | 92 | 6240 | > 1000 | 170 | 539 |  |  |  | 
2 | CC(C)[C@@H](CCCN(C)C)N1CC2(CCN(c3ncnnc3Oc3ccc(F)cc3C(=O)N(C(C)C)C(C)C)C2)C1 (single isomer, unassigned) [Compound 102, (*R)-2-((5(2-(6-(dimethylamino)-2-methylhexan-3-yl)-2,6-diazaspiro[3.4]octan-6-yl)-1,2,4-triazin-6-yl)oxy)-5-fluoro-N,N-diisopropylbenzamide fumarate] | 110 |  | 33 | > 15000 |  | 16 |  | 11 | 9.7 | 0.11 | 
3 | CCN(C(=O)c1cc(F)ccc1Oc1nncnc1N1CCC2(C1)CN([C@H](CCO)C(C)C)C2)C(C)C (single isomer, unassigned) [Compound 214, (*R)—N-ethyl-5-fluoro-2-((5-(2-(1-hydroxy-4-methylpentan-3-yl)-2,6-diazaspiro[3.4]octan-6-yl)-1,2,4-triazin-6-yl)oxy)-N-isopropylbenzamide] |  |  |  |  |  |  |  |  |  |  | IC50 (OCI-AML3 cells): 380 nM; IC50 (MEIS1 mRNA): 140 nM; IC50 (KO-52 cells): > 15000 nM; IC50 ([4]; read-out: HTRF-30 min incubation IC50, 30 min incubation): 0.49 nM; Mouse LM Clint [1]: 80 µL/min/mg; IC50 (MOLM14 cells): 120 nM; Human LM Clint [2]: 44 µL/min/mg
4 | CCN(C(=O)c1cc(F)ccc1Oc1nncnc1N1CCC2(C1)CN([C@H](CCCNC(C)=O)C(C)C)C2)C(C)C [Compound 6, (R)-2-((5(2-(6-acetamido-2-methylhexan-3-yl)-2,6-diazaspiro[3.4]octan-6-yl)-1,2,4-triazin-6-yl)oxy)-N-ethyl-5-fluoro-N-isopropylbenzamide formate] | 1860 |  | 360 | > 15000 | 28 | 480 | 35 |  |  | 0.61 | 
5 | CCN(C(=O)c1cc(F)ccc1Oc1nncnc1N1CCC2(C1)CN([C@H](CCCN[C@H](C)COC)C(C)C)C2)C(C)C.O=C(O)/C=C/C(=O)O [Compound 112] |  |  |  |  |  |  |  | 6.2 | 4 |  | 
6 | CCN(C(=O)c1cc(F)ccc1Oc1nncnc1N1CCC2(C1)CN([C@H](CCCNCCC(F)F)C(C)C)C2)C(C)C.O=C(O)/C=C/C(=O)O [Compound 114] |  |  |  |  |  |  |  | 9.5 | 8.7 |  | 
7 | CCN(C(=O)c1cc(F)ccc1Oc1nncnc1N1CCC2(C1)CN([C@H](CCCN(C)C(COC)COC)C(C)C)C2)C(C)C [Compound 161, (R)-2-((5-(2-(6-((1,3-dimethoxypropan-2-yl)(methyl)amino)-2-methylhexan-3-yl)-2,6-diazaspiro[3.4]octan-6-yl)-1,2,4-triazin-6-yl)oxy)-N-ethyl-5-fluoro-N-isopropylbenzamide fumarate] | 55 |  | 41 | > 15000 | 55 | 16 | 70 |  |  | 0.23 | 
8 | CCN(C(=O)c1cc(F)ccc1Oc1nncnc1N1CCC2(C1)CN([C@H](CCCN(C)CC(C)OC)C(C)C)C2)C(C)C (stereo partly drawn) [Compound 252, N-ethyl-5-fluoro-N-isopropyl-2-((5-(2-((3R)-6-((2-methoxypropyl)(methyl)amino)-2-methylhexan-3-yl)-2,6-diazaspiro[3.4]octan-6-yl)-1,2,4-triazin-6-yl)oxy)benzamide oxalate] | 640 | > 30200 | 53 | 7260 |  | 32 |  |  |  | 0.065 | 
9 | CCOCCN(C)CCC[C@H](C(C)C)N1CC2(CCN(c3ncnnc3Oc3ccc(F)cc3C(=O)N(CC)C(C)C)C2)C1 [Compound 258, (R)-2-((5-(2-(6-((2-ethoxyethyl)(methyl)amino)-2-methylhexan-3-yl)-2,6-diazaspiro[3.4]octan-6-yl)-1,2,4-triazin-6-yl)oxy)-N-ethyl-5-fluoro-N-isopropylbenzamide oxalate] | 740 | > 30200 | 26 | 5440 |  | 27 |  |  |  | 0.33 | 
10 | CCN(C(=O)c1cc(F)ccc1Oc1nncnc1N1CCC2(C1)CN([C@H](CCCNCCOC)C(C)C)C2)C(C)C [Compound 397, (R)-N-ethyl-5-fluoro-N-isopropyl-2-((5-(2-(6-((2-methoxyethyl)amino)-2-methylhexan-3-yl)-2,6-diazaspiro[3.4]octan-6-yl)-1,2,4-triazin-6-yl)oxy)benzamide fumarate] |  |  |  | > 15000 | < 7.5 | 15 |  |  |  |  | IC50 (OCI-AML3 cells; fumarate): 27 nM
